Data published in ChEMBL document CHEMBL1201862, “PubChem BioAssay data set” (2004).
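Test compounds were applied to cells in 96-well plates for 48 hours at 5 doses. At the GI50, growth is halved.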 The source made the active and inactive calls. Rule as the data show it: active = GI50 up to about 1.1 µM and inactive = higher.

How the values were obtained:
Assay in all cases: NCI tumour cell line growth inhibition, 48 h
[1] = test system: HT-29
[2] = test system: NCI-H522
[3] = test system: SN12C
[4] = test system: HL-60
[5] = test system: HCC 2998
[6] = test system: BT-549
[7] = test system: SK-OV-3
[8] = test system: NCI-H23
[9] = test system: NCI-H460
[10] = test system: UO-31
[11] = test system: CCRF-CEM
[12] = test system: MCF7
[13] = test system: SF-268
[14] = test system: CAKI-1
[15] = test system: MOLT-4
[16] = test system: M14
[17] = test system: NCI-H226
[18] = test system: RXF 393
[19] = test system: SK-MEL-28
[20] = test system: OVCAR-3

Structure (SMILES)	GI50 [1]	GI50 [2]	GI50 [3]	GI50 [4]	GI50 [5]	GI50 [6]	GI50 [7]	GI50 [8]	GI50 [9]	GI50 [10]	GI50 [11]	GI50 [12]	GI50 [13]	GI50 [14]	GI50 [15]	GI50 [16]	GI50 [17]	GI50 [18]	GI50 [19]	GI50 [20]
NCCCCN(CCCN)Cc1ccccc1	> 100 µM (inactive)	> 100 µM (inactive)	> 100 µM (inactive)	> 100 µM (inactive)	> 100 µM (inactive)	> 100 µM (inactive)	> 100 µM (inactive)	> 100 µM (inactive)	> 100 µM (inactive)	> 100 µM (inactive)	> 100 µM (inactive)	> 100 µM (inactive)	> 100 µM (inactive)	> 100 µM (inactive)	> 100 µM (inactive)	> 100 µM (inactive)	> 100 µM (inactive)	> 100 µM (inactive)	> 100 µM (inactive)	> 100 µM (inactive)
c1ccc2c(c1)SC1Sc3ccccc3[S+]21 (centres undefined)	27.2 µM (inactive)	6.53 µM (inactive)	5.96 µM (inactive)	19.8 µM (inactive)		20.1 µM (inactive)	> 100 µM (inactive)	18.2 µM (inactive)	29.5 µM (inactive)	20.8 µM (inactive)	16.5 µM (inactive)	25.1 µM (inactive)	18.5 µM (inactive)	17.8 µM (inactive)	13.4 µM (inactive)	21.5 µM (inactive)	19.9 µM (inactive)	> 45.1 µM (inactive)	16.1 µM (inactive)	19.5 µM (inactive)
CCCCC1=C(Br)C(=C(Br)Br)OC1=O	3.08 µM (inactive)	1.86 µM (inactive)	2.75 µM (inactive)	1.85 µM (inactive)	6.31 µM (inactive)		17.6 µM (inactive)	4.37 µM (inactive)	4.56 µM (inactive)	11.9 µM (inactive)	2.45 µM (inactive)	3.54 µM (inactive)	2.61 µM (inactive)	2.15 µM (inactive)	1.83 µM (inactive)		4 µM (inactive)	2.09 µM (inactive)	2.78 µM (inactive)	2.55 µM (inactive)
C(/C=N/c1ccccc1)=C(/Nc1ccccc1)C12CC3CC(CC(C3)C1)C2	12.6 µM (inactive)	10.4 µM (inactive)	18.8 µM (inactive)	12.1 µM (inactive)	15.8 µM (inactive)	16.6 µM (inactive)	16.4 µM (inactive)	18.3 µM (inactive)	23.6 µM (inactive)	15.1 µM (inactive)	2.72 µM (inactive)	20.5 µM (inactive)	19.1 µM (inactive)	15.4 µM (inactive)	5.73 µM (inactive)	12.7 µM (inactive)	19.2 µM (inactive)	17.1 µM (inactive)	20.5 µM (inactive)	6.85 µM (inactive)
CCN(CC)Cc1ccc2cccnc2c1O	2.9 µM (inactive)	0.37 µM (active)	4.12 µM (inactive)	0.43 µM (active)	11.1 µM (inactive)	37.1 µM (inactive)	7.01 µM (inactive)	6.67 µM (inactive)	3.82 µM (inactive)	1.88 µM (inactive)	0.713 µM (active)	3.27 µM (inactive)	22.6 µM (inactive)	2.47 µM (inactive)	1.93 µM (inactive)		6.08 µM (inactive)	93.1 µM (inactive)	7.35 µM (inactive)	2.88 µM (inactive)
COC(=O)C1OC(Oc2cc(O)c3c(=O)cc(-c4ccc(O)cc4)oc3c2)C(O)C(O)C1O (centres undefined)	> 100 µM (inactive)	> 100 µM (inactive)	> 100 µM (inactive)	> 100 µM (inactive)	> 100 µM (inactive)		> 100 µM (inactive)	> 100 µM (inactive)	> 100 µM (inactive)	> 100 µM (inactive)	> 100 µM (inactive)	> 100 µM (inactive)	> 100 µM (inactive)	> 100 µM (inactive)	> 100 µM (inactive)		> 100 µM (inactive)	> 100 µM (inactive)	> 100 µM (inactive)	> 100 µM (inactive)
CC1CCC(O)/C=C/C(=O)OC(C)C(O)/C=C/C(=O)O1 (centres undefined)	> 100 µM (inactive)	35.6 µM (inactive)	> 100 µM (inactive)	37.2 µM (inactive)	> 100 µM (inactive)	41.8 µM (inactive)	> 100 µM (inactive)	> 73.5 µM (inactive)	> 100 µM (inactive)	> 100 µM (inactive)	25.4 µM (inactive)	> 92.9 µM (inactive)	> 100 µM (inactive)	> 100 µM (inactive)	19.1 µM (inactive)	> 56.1 µM (inactive)	> 100 µM (inactive)	> 62.1 µM (inactive)	> 100 µM (inactive)	57.1 µM (inactive)
